This assay concerns the target T1, Caspase-3 (Homo sapiens, UniProt P42574).
T1 sequence (P42574 whole entry): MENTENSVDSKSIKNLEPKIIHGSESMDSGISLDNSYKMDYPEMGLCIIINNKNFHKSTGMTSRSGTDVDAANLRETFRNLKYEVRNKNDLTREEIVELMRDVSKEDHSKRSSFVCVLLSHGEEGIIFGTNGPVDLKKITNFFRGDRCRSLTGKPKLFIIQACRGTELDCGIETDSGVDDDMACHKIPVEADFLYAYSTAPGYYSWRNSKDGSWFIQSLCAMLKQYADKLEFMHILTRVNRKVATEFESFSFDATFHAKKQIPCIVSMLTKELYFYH
Description: In vitro inhibitory concentration measured against caspase-3.

These results are taken from ChEMBL document CHEMBL1141915, “1,3-Dioxo-4-methyl-2,3-dihydro-1H-pyrrolo[3,4-c]quinolines as potent caspase-3 inhibitors” (Bioorg Med Chem Lett, 2005).

Molecules are shown by their SMILES. Some results are limits rather than exact numbers.

Turning to `Cc1nc2ccccc2c2c1C(=O)N(C)C2=O`, the half-inhibitory concentration (IC50) (in general, the concentration needed to halve the response being measured) is 6.36 µM.

As for `Cc1nc2ccccc2c2c1C(=O)NC2=O`, the IC50 was over 100 µM.
